Data set [1] is described as follows: log P determination by HPLC (reversed-phase C18), EEC Directive 79/831 Annex V.A8. The format is physicochemical. The conditions noted are these: reversed-phase C18 HPLC column; a) acidic range: 0.1% aqueous phosphoric acid, acetonitrile, linear gradient 10% to 90% acetonitrile; HPLC C18, 43° C. The text has this:
(a) Mobile phases for the determination in the acidic range: 0.1% aqueous phosphoric acid, acetonitrile; linear gradient from 10% acetonitrile to 90% acetonitrile—the corresponding test results in Table I are labelled a).
(b) Mobile phases for the determination in the neutral range: 0.01 molar aqueous phosphate buffer solution, acetonitrile; linear gradient from 10% acetonitrile to 90% acetonitrile—the corresponding test results in Table 1 are labelled b).

In data set [2] the test system is weeds. The data set can be described thus: Pre-emergence test (Example A). Type of data set: in vivo. The conditions noted are these: soil sprayed 24 hours after sowing, rated after three weeks vs untreated control. As for the experimental part: (§1) Solvent: 5 parts by weight of acetone
(§2) Emulsifier: 1 part by weight of alkylaryl polyglycol ether
(§3) To produce a suitable preparation of active compound, 1 part by weight of active compound is mixed with the stated amount of solvent, the stated amount of emulsifier is added and the concentrate is diluted with water to the desired concentration.
Seeds of the test plants are sown in normal soil. After 24 hours, the soil is sprayed with the preparation of active compound such that the particular amount of active compound desired is applied per unit area. The concentration of active compound in the spray liquor is chosen such that the particular amount of active compound desired is applied in 1000 liters of water per hectare.
After three weeks, the degree of damage to the plants is rated in % damage in comparison to the development of the untreated control. The figures denote:
(§4) 0%=no effect (like untreated control)

Data set [3] has as its system weeds. The data set can be described thus: Post-emergence test (Example B). The format is in vivo. The conditions noted are these: test plants of 5-15 cm sprayed, rated after three weeks vs untreated control. On the procedure:
as §1, §2, §3
Test plants of a height of 5-15 cm are sprayed with the preparation of active compound such that the particular amounts of active compound desired are applied per unit area. The concentration of the spray liquor is chosen such that the particular amounts of active compound desired are applied in 1000 l of water/ha.
After three weeks, the degree of damage to the plants is rated in % damage in comparison to the development of the untreated control.
as §4

Two molecules from patent US6649760B2, “Substituted phenyluracils” (priority 2000, dated 2003) can be followed below.

As for `O=c1cc(C(F)(F)F)[nH]c(=O)n1-c1cc(Oc2ncccn2)c(Br)cc1F` [Example 1, 1-[4-bromo-2-fluoro-5-(pyrimidin-2-yl-oxy)-phenyl]-4-trifluoromethyl-3,6-dihydro-2,6-dioxo-1 (2H)-pyrimidine], the chromatographic logP in data set [1] came to 1.96.

As for `Cn1c(C(F)(F)F)cc(=O)n(-c2cc(Oc3ncccn3)c(Br)cc2F)c1=O` [Example 2, 1-[4-bromo-2-fluoro-5-(pyrimidin-2-yl-oxy)-phenyl]-3-methyl-4-trifluoromethyl-3 ,6-dihydro-2,6-dioxo-1 (2H)-pyrimidine], the chromatographic logP in data set [1] stood at 2.47. Besides, the “activity against weeds (degree of damage to the plants)” value in data set [2] and in data set [3] was “very strong activity” each time.

As usually defined, the chromatographic logP is a lipophilicity value derived from retention on a column.
